Experimental data from patent US10072020B1, “Isatin spiro compounds with antibacterial activities and a method of preparing the same” (SHAANXI UNIVERSITY OF SCIENCE AND TECHNOLOGY, priority 2018, dated 2018).
Values after ≈ are worked out from the molar mass of the structure shown.

Assays:
Assay in all cases: Antibacterial activity test, MIC by agar dilution
Type in all cases: cell-based
[1] = system: Escherichia coli ATCC 25922; settings: ATCC25922, MH agar plate two-fold dilution, 25° C. for 18-24 hours, read-out: Minimum Inhibitory Concentrations
Experimental: (§1) Antibacterial Activity Test of the Compounds of the Invention
(§2) The compounds were tested for their antibacterial activities using the following standard strains: Escherichia coli ATCC 25922, Escherichia coli 10-1, and Escherichia coli 10-2.
(§3) Preparation of Escherichia coli strains and bacterial liquid: the test strains (Escherichia coli ATCC 25922, Escherichia coli 10-1, and Escherichia coli 10-2) stock solutions were seeded in LB solid Media Petri dishes and placed in a 37° C. incubator overnight. The next day, single colonies were picked from LB solid petri dishes and inoculated into 6-10 mL LB liquid medium and cultured with shaking at 150 rpm for 3 hours at 37° C. 100 μL of the liquid was evenly coated on an LB solid plate, and inverted in an incubator at 37° C. overnight. Viable cells in the logarithmic growth phase were collected after 16-18 hours, and sterile water was added to form a bacteria suspension with the number of bacteria being 106 CFu·mL^−1.
(§4) Preparation of compound-containing agar plate: MH agar was heated to dissolve and placed in 45-50° C. water bath to balance, the compounds were added at different concentrations (160, 300, 600 μg·mL^−1). The mixtures were mixed evenly and poured onto sterilization plates, placed into a sealed plastic bag at 2-8° C.
(§5) Determination of the minimum inhibitory concentration: the minimum inhibitory concentrations (MICs) of the test compounds on the test bacteria were determined by diluting the agar plate two-fold. Multi-point inoculation instrument was used to inoculate bacteria to the MH agar medium that contains the compounds, forming a plaque with a diameter of 5 to 8 mm. After the plates were incubated at 25° C. for 18-24 hours, the growth state of the bacteria was observed, and the minimum compound concentration for inhibiting the growth of the bacteria was the MIC.

Escherichia coli 10-1 = settings: 101, MH agar plate two-fold dilution, 25° C. for 18-24 hours, read-out: Minimum Inhibitory Concentrations
Experimental: as §1, §2, §3, §4, §5

Escherichia coli 10-2 = settings: 102, MH agar plate two-fold dilution, 25° C. for 18-24 hours, read-out: Minimum Inhibitory Concentrations
Experimental: as §1, §2, §3, §4, §5

Structure (SMILES) | MIC [1] | MIC (Escherichia coli 10-1) | MIC (Escherichia coli 10-2)
CN1C(=O)[C@@]2(OC(c3ccccc3)=C2C(=O)c2ccccc2)c2cc(Cl)ccc21 [Compound 7, (R)-3′-benzoyl-5-chloro-1-methyl-4′-phenylspiro[indoline-3,2′-oxet]-2-one] | 300 µg/mL (≈ 747 µM) | 160 µg/mL (≈ 398 µM) | 300 µg/mL (≈ 747 µM)
O=C(C1=C(c2ccccc2)O[C@@]12C(=O)N(Cc1ccccc1)c1c(Br)cccc12)c1ccccc1 [Compound 15] | 160 µg/mL (≈ 306 µM) | 160 µg/mL (≈ 306 µM) | 300 µg/mL (≈ 574 µM)
CN1C(=O)[C@@]2(OC(c3ccccc3)=C2C(=O)c2ccccc2)c2cc(Br)ccc21 [Compound 5, (R)-3′-benzoyl-5-bromo-1-methyl-4′-phenylspiro[indoline-3,2′-oxet]-2-one] | 160 µg/mL (≈ 359 µM) | 300 µg/mL (≈ 672 µM) | 300 µg/mL (≈ 672 µM)
CCCN1C(=O)[C@@]2(OC=C2C(=O)c2ccccc2)c2cc(Cl)ccc21 [Compound 11, (R)-3′-benzoyl-5-chloro-1-propylspiro[indoline-3,2′-oxet]-2-one] | > 600 µg/mL | 160 µg/mL (≈ 452 µM) | 160 µg/mL (≈ 452 µM)
CCN1C(=O)[C@@]2(OC=C2C(=O)c2ccccc2)c2cc(Br)ccc21 [Compound 9, (R)-3′-benzoyl-5-bromo-1-ethylspiro[indoline-3,2′-oxet]-2-one] | 300 µg/mL (≈ 781 µM) | 300 µg/mL (≈ 781 µM) | 160 µg/mL (≈ 416 µM)
O=C1Nc2ccccc2C1=O [isatin] | > 600 µg/mL | 300 µg/mL (≈ 2040 µM) | 160 µg/mL (≈ 1090 µM)
CCCN1C(=O)[C@@]2(OC(c3ccccc3)=C2C(=O)c2ccccc2)c2cc(Cl)ccc21 [Compound 16, (R)-3′-benzoyl-5-chloro-4′-phenyl-1-propylspiro[indoline-3,2′-oxet]-2-one] | 160 µg/mL (≈ 372 µM) | 300 µg/mL (≈ 698 µM) | 160 µg/mL (≈ 372 µM)

Other lines, results leading:

MIC [1] | MIC (Escherichia coli 10-1) | MIC (Escherichia coli 10-2) | Structure (SMILES)
160 µg/mL (≈ 519 µM) | 300 µg/mL (≈ 974 µM) | 160 µg/mL (≈ 519 µM) | CCN1C(=O)[C@@]2(OC=C2C=O)c2cc(Br)ccc21 [Compound 13, (R)-5-bromo-1-ethyl-2-oxospiro[indoline-3,2′-oxete]-3′-carbaldehyde]
300 µg/mL (≈ 883 µM) | 160 µg/mL (≈ 471 µM) | 300 µg/mL (≈ 883 µM) | CCN1C(=O)[C@@]2(OC(c3ccccc3)=C2C=O)c2cccc(Cl)c21 [Compound 12, (R)-7-chloro-1-ethyl-2-oxo-4′-phenylspiro[indoline-3,2′-oxete]-3′-carbaldehyde]
160 µg/mL (≈ 398 µM) | 300 µg/mL (≈ 747 µM) | 300 µg/mL (≈ 747 µM) | CN1C(=O)[C@@]2(OC(c3ccccc3)=C2C(=O)c2ccccc2)c2cccc(Cl)c21 [Compound 8, (R)-3′-benzoyl-7-chloro-1-methyl-4′-phenylspiro[indoline-3,2′-oxet]-2-one]
300 µg/mL (≈ 1020 µM) | 160 µg/mL (≈ 544 µM) | > 160 µg/mL | CN1C(=O)[C@@]2(OC=C2C=O)c2cccc(Br)c21 [Compound 2, (R)-7-bromo-1-methyl-2-oxospiro[indoline-3,2′-oxete]-3′-carbaldehyde]
300 µg/mL (≈ 1020 µM) | 160 µg/mL (≈ 544 µM) | 160 µg/mL (≈ 544 µM) | CN1C(=O)[C@@]2(OC=C2C=O)c2cc(Br)ccc21 [Compound 1, (R)-5-bromo-1-methyl-2-oxospiro[indoline-3,2′-oxete]-3′-carbaldehyde]
300 µg/mL (≈ 753 µM) | 160 µg/mL (≈ 402 µM) | > 600 µg/mL | CCCN1C(=O)[C@@]2(OC(c3ccccc3)=C2C=O)c2cccc(Br)c21 [Compound 10, (R)-7-bromo-2-oxo-4′-phenyl-1-propylspiro[indoline-3,2′-oxete]-3′-carbaldehyde]
300 µg/mL (≈ 1200 µM) | 160 µg/mL (≈ 641 µM) | 300 µg/mL (≈ 1200 µM) | CN1C(=O)[C@@]2(OC=C2C=O)c2cc(Cl)ccc21 [Compound 3, (R)-5-chloro-1-methyl-2-oxospiro[indoline-3,2′-oxete]-3′-carbaldehyde]
> 600 µg/mL | 300 µg/mL (≈ 1200 µM) | 160 µg/mL (≈ 641 µM) | CN1C(=O)[C@@]2(OC=C2C=O)c2cccc(Cl)c21 [Compound 4, (R)-7-chloro-1-methyl-2-oxospiro[indoline-3,2′-oxete]-3′-carbaldehyde]
300 µg/mL (≈ 672 µM) | > 600 µg/mL | 300 µg/mL (≈ 672 µM) | CN1C(=O)[C@@]2(OC(c3ccccc3)=C2C(=O)c2ccccc2)c2cccc(Br)c21 [Compound 6, (R)-3′-benzoyl-7-bromo-1-methyl-4′-phenylspiro[indoline-3,2′-oxet]-2-one]
300 µg/mL (≈ 921 µM) | 160 µg/mL (≈ 491 µM) | 160 µg/mL (≈ 491 µM) | O=CC1=CO[C@@]12C(=O)N(Cc1ccccc1)c1c(Cl)cccc12 [Compound 14]
